The inhibition is the relative decrease from the control value, in per cent. As a reminder, the melting point is the temperature, or range, at which the solid turns liquid.

The structures appear in SMILES notation.

The values below come from patent publication US10314308B2, “Microbiocidal benzoxaboroles” (SYNGENTA PARTICIPATIONS AG, priority 2015, dated 2019).

The test system of series [1] is Glomerella Lagenarium(Colletotrichum Ladenarium). The series can be described thus: Glomerella lagenarium (Colletotrichum lagenarium) / liquid culture (anthracnose). It is filed as cell-based. Conditions: PDB potato dextrose broth, 24° C., 3-4 days after application, read-out: disease control (inhibition of growth, photometrically). The procedure: 10 Glomerella Lagenarium(Colletotrichum Ladenarium)/Liquid Culture (Anthracnose) Conidia of the fungus from cryogenic storage were directly mixed into nutrient broth (PDB potato dextrose broth). After placing a DMSO solution of test compound into a 96-well microtiter plate, the nutrient broth containing the fungal spores was added. The test plates were incubated at 24° C. and the inhibition of growth was measured photometrically 3-4 days after application.

For a further series, the system named is Fusarium Culmorum. The series can be described thus: microbe, parasite or virus in culture. In kind it is cell-based. Particulars: read-out: disease control (inhibition of growth, photometrically).
Series [2] relates to Mycosphaerella Graminicola(Septoria Tritici). The series can be described thus: Mycosphaerella graminicola (Septoria tritici) / liquid culture (Septoria blotch). It is filed as cell-based. Particulars: Zymoseptoria tritici, PDB potato dextrose broth, 24° C., 4-5 days after application, read-out: disease control (inhibition of growth, photometrically). The procedure:
12 Mycosphaerella Graminicola(Septoria Tritici)/Liquid Culture (Septoria Blotch) Conidia of the fungus from cryogenic storage were directly mixed into nutrient broth (PDB potato dextrose broth). After placing a DMSO solution of test compound into a 96-well microtiter plate, the nutrient broth containing the fungal spores was added. The test plates were incubated at 24° C. and the inhibition of growth was determined photometrically 4-5 days after application.

Series [3] concerns Mycosphaerella Arachidis(Cercospora Arachidicola). Briefly: Mycosphaerella arachidis (Cercospora arachidicola) / liquid culture (early leaf spot). It is filed as cell-based. Conditions: PDB potato dextrose broth, 24° C., 4-5 days after application, read-out: disease control (inhibition of growth, photometrically). The procedure: 11 Mycosphaerella Arachidis(Cercospora Arachidicola)/Liquid Culture (Early Leaf Spot) Conidia of the fungus from cryogenic storage were directly mixed into nutrient broth (PDB potato dextrose broth). After placing a DMSO solution of test compound into a 96-well microtiter plate, the nutrient broth containing the fungal spores was added. The test plates were incubated at 24° C. and the inhibition of growth was determined photometrically 4-5 days after application.

The test system of a further series is Gaeumannomyces Graminis. Briefly: Gaeumannomyces graminis / liquid culture (take-all of cereals). Conditions: PDB potato dextrose broth, 24° C., 4-5 days after application, read-out: disease control (inhibition of growth, photometrically). In kind it is cell-based. The procedure:
13 Gaeumannomyces Graminis/Liquid Culture (Take-all of Cereals) Mycelial fragments of the fungus from cryogenic storage were directly mixed into nutrient broth (PDB potato dextrose broth). After placing a DMSO solution of test compound into a 96-well microtiter plate, the nutrient broth containing the fungal spores is added. The test plates were incubated at 24° C. and the inhibition of growth was determined photometrically 4-5 days after application.

In the next series the test system is Plasmopara Viticola. The series can be described thus: whole plant or invertebrate. It is filed as in vivo. Conditions: foliar, read-out: disease control.
The test system of series [4] is Monographella Nivalis(Microdochium Nivale). Briefly: Monographella nivalis (Microdochium nivale) / liquid culture (foot rot cereals). It is filed as cell-based. Particulars: PDB potato dextrose broth, 24° C., 4-5 days after application, read-out: disease control (inhibition of growth, photometrically). How it is done:
14 Monographella Nivalis(Microdochium Nivale)/Liquid Culture (Foot Rot Cereals) Conidia of the fungus from cryogenic storage were directly mixed into nutrient broth (PDB potato dextrose broth). After placing a DMSO solution of test compound into a 96-well microtiter plate, the nutrient broth containing the fungal spores was added. The test plates were incubated at 24° C. and the inhibition of growth was determined photometrically 4-5 days after application.

Series [5] concerns Thanatephorus Cucumeris(Rhizoctonia Solani). Briefly: Thanatephorus cucumeris (Rhizoctonia solani) / liquid culture (foot rot, damping-off). In kind it is cell-based. Particulars: PDB potato dextrose broth, 24° C., 3-4 days after application, read-out: disease control (inhibition of growth, photometrically). How it is done: 16 Thanatephorus Cucumeris(Rhizoctonia Solani)/Liquid Culture (Foot Rot, Damping-Off) Mycelia fragments of a newly grown liquid culture of the fungus were directly mixed into nutrient broth (PDB potato dextrose broth). After placing a DMSO solution of the test compounds into a 96-well microtiter plate at an application rate of 200 ppm, the nutrient broth containing the fungal material was added. The test plates were incubated at 24° C. and the inhibition of growth was determined photometrically 3-4 days after application.

The next series has as its system Pythium Ultimum. The series can be described thus: Pythium ultimum / liquid culture (seedling damping off). In kind it is cell-based. Conditions: Globisporangium ultimum, potato dextrose broth, 24° C., 2-3 days after application, read-out: disease control (inhibition of growth, photometrically).
Series [6] concerns Botryotinia Fuckeliana(Botrytis Cinerea). Briefly: Botryotinia fuckeliana (Botrytis cinerea) / liquid culture (gray mould). In kind it is cell-based. Conditions: Vogels broth, 24° C., 3-4 days after application, read-out: disease control (inhibition of growth, photometrically). How it is done:
9 Botryotinia Fuckeliana(Botrytis Cinerea)/Liquid Culture (Gray Mould) Conidia of the fungus from cryogenic storage were directly mixed into nutrient broth (Vogels broth). After placing a DMSO solution of test compound into a 96-well microtiter plate, the nutrient broth containing the fungal spores was added. The test plates were incubated at 24° C. and the inhibition of growth was determined photometrically 3-4 days after application.

Another series concerns Sclerotinia Sclerotiorum. The series can be described thus: Sclerotinia sclerotiorum / liquid culture (cottony rot). In kind it is cell-based. Conditions: PDB potato dextrose broth, 24° C., 3-4 days after application, read-out: disease control (inhibition of growth, visually). How it is done: 17 Sclerotinia Sclerotiorum/Liquid Culture (Cottony Rot) Mycelia fragments of a newly grown liquid culture of the fungus were directly mixed into nutrient broth (PDB potato dextrose broth). After placing a (DMSO) solution of the test compounds into a microtiter plate (96-well format) the nutrient broth containing the fungal material was added. The test plates were incubated at 24° C. and the inhibition of growth was determined visually 3-4 days after application.

Take `OB1OCc2cc(Cl)c(-c3cc4ccccc4[nH]3)cc21` [Compound 72]: the inhibition at 20 ppm (in series [1]; in the series with Fusarium Culmorum; in series [2]; in series [3]; in the series with Gaeumannomyces Graminis; in series [4]) was at least 80% in each case. Also, the inhibition at 20 ppm (in [5]; in the series with Pythium Ultimum) was at least 80% each time. The pest or weed control at 200 ppm with Plasmopara Viticola is at least 80%.
For the compound `Cc1nc(-c2cc3c(cc2F)COB3O)oc1C` [Compound 32, 2-(5-fluoro-1-hydroxy-3H-2,1-benzoxaborol-6-yl)-4,5-dimethyl-oxazole], the melting point was in the range of 164 to 166 °C. Also, in series [4], the inhibition at 20 ppm is at least 80%. In the series on Pythium Ultimum, the inhibition at 20 ppm is at least 80%.
On to `OCc1ccc(-c2cc3c(cc2Cl)COB3O)o1` [Compound 40], for which the inhibition at 20 ppm (in series [1]; in the series with Fusarium Culmorum; in series [2]; in [6]; in series [3]; in the series on Gaeumannomyces Graminis) was at least 80% throughout. Also, the inhibition at 20 ppm (with Sclerotinia Sclerotiorum; in [4]; in the series with Pythium Ultimum) was at least 80% in each case.
Consider `CSc1ncc(-c2cc3c(cc2Cl)COB3O)c(C)n1` [Compound 20], for which the inhibition at 20 ppm (in the series with Fusarium Culmorum; in [4]; with Pythium Ultimum) was at least 80% in each case.
`O=Cc1csc(-c2cc3c(cc2Cl)COB3O)c1` [Compound 34]: the inhibition at 20 ppm (in series [1]; in the series with Fusarium Culmorum; in series [2]; in series [3]; in the series with Gaeumannomyces Graminis; in [4]) was at least 80% each time. Further, the inhibition at 20 ppm in the series on Pythium Ultimum was at least 80%.
With `CCc1ccc(-c2cc3c(cc2Cl)COB3O)s1` [Compound 35], the inhibition at 20 ppm (in series [1]; with Fusarium Culmorum; in series [2]; in series [3]; in the series with Gaeumannomyces Graminis; in [4]) was at least 80% throughout. In addition, the inhibition at 20 ppm (in series [5]; with Pythium Ultimum) was at least 80% in each case. For the same compound, the pest or weed control at 200 ppm in the series with Plasmopara Viticola is at least 80%.
For `OB1OCc2cc(Cl)c(-c3ccoc3)cc21` [Compound 84], the inhibition at 20 ppm (in series [1]; with Fusarium Culmorum; in series [2]; in series [3]; in the series with Gaeumannomyces Graminis; with Sclerotinia Sclerotiorum) was at least 80% in each case. Also, the inhibition at 20 ppm (in [4]; in [5]; with Pythium Ultimum) was at least 80% throughout. For the same compound, in the series on Plasmopara Viticola, the pest or weed control at 200 ppm was at least 80%.
With `Cn1nccc1-c1cc2c(cc1F)COB2O` [Compound 10], the inhibition at 20 ppm (in [1]; in the series with Fusarium Culmorum; in [2]; in series [6]; in series [3]; in the series with Sclerotinia Sclerotiorum) was at least 80% in each case. Besides, in the series with Pythium Ultimum, the inhibition at 20 ppm was at least 80%.
In turn, `ON=Cc1ccc(-c2cc3c(cc2Cl)COB3O)o1` (single isomer, unassigned) [Compound 22, 5-(5-chloro-1-hydroxy-3H-2,1-benzoxaborol-6-yl)furan-2-carbaldehyde oxime] came in with a melting point of 188 to 193 °C. The inhibition at 20 ppm in [1] was at least 80%. Besides, in series [4], the inhibition at 20 ppm was at least 80%. Besides, the inhibition at 20 ppm with Pythium Ultimum is at least 80%.
Regarding `OB1OCc2cc(Cl)c(-c3cnco3)cc21` [Compound 18], the inhibition at 20 ppm (in series [1]; in the series with Fusarium Culmorum; in series [2]; in series [3]; with Gaeumannomyces Graminis; with Sclerotinia Sclerotiorum) was at least 80% each time. For the same compound, the inhibition at 20 ppm (in [4]; in the series with Pythium Ultimum) was at least 80% each time.
Turning to `Cc1ccc(-c2cc3c(cc2Cl)COB3O)o1` [Compound 36], the inhibition at 20 ppm (in series [1]; in the series with Fusarium Culmorum; in [2]; in series [6]; in [3]; in the series on Gaeumannomyces Graminis) was at least 80% throughout. Further, the inhibition at 20 ppm (in the series on Sclerotinia Sclerotiorum; in series [4]; in [5]; in the series with Pythium Ultimum) was at least 80% in each case. Moreover, the pest or weed control at 200 ppm in the series with Plasmopara Viticola is at least 80%.
Consider `OB1OCc2cc(F)c(-c3ccoc3)cc21` [Compound 75], for which the inhibition at 20 ppm (in series [1]; in the series on Fusarium Culmorum; in [2]; in [6]; in [3]; in the series with Gaeumannomyces Graminis) was at least 80% each time. The inhibition at 20 ppm (in the series with Sclerotinia Sclerotiorum; in [4]; in series [5]; with Pythium Ultimum) was at least 80% each time. Further, the pest or weed control at 200 ppm in the series with Plasmopara Viticola was at least 80%.
Consider `OB1OCc2cc(Cl)c(-c3cocc3Br)cc21` [Compound 44], for which the inhibition at 20 ppm (in series [1]; in the series with Fusarium Culmorum; in series [2]; in series [6]; in series [3]; in the series on Gaeumannomyces Graminis) was at least 80% each time. In addition, the inhibition at 20 ppm (in the series with Sclerotinia Sclerotiorum; in series [4]; in series [5]; with Pythium Ultimum) was at least 80% in each case. Further, in the series on Plasmopara Viticola, the pest or weed control at 200 ppm is at least 80%.
For the compound `OB1OCc2cc(Cl)c(-c3sccc3Br)cc21` [Compound 45], the inhibition at 20 ppm (in series [1]; in the series with Fusarium Culmorum; in series [2]; in [6]; in series [3]; with Gaeumannomyces Graminis) was at least 80% each time. For the same compound, the inhibition at 20 ppm (in the series on Sclerotinia Sclerotiorum; in series [4]; in [5]; in the series on Pythium Ultimum) was at least 80% throughout. Moreover, the pest or weed control at 200 ppm in the series with Plasmopara Viticola is at least 80%.
Take `O=Cc1ccc(-c2cc3c(cc2F)COB3O)o1` [Compound 26]: the inhibition at 20 ppm (in series [1]; in the series on Fusarium Culmorum; in series [2]; in series [6]; in series [3]; in the series with Sclerotinia Sclerotiorum) was at least 80% throughout. Moreover, the inhibition at 20 ppm (in series [4]; with Pythium Ultimum) was at least 80% in each case.
